Read-outs that look alike come from different tables or passages of the source.
Tests used:
Depressant activity = assay type: in vivo; conditions: result in words
blood pressure = assay: Tests for action on the cardiovascular system: hypotensive activity (activity in method 1, rats or cats, or method 2), reported in words; assay type: in vivo, rat, cat; conditions: standard test procedure, result in words
Experimental: Tests for action on the cardiovascular system were conducted according to one of the following procedures:
Cats were anaesthetised with pentobarbitone sodium (30 mg/kg) and the cephalic vein, femoral and carotid arteries and trachea were cannulated. The carotid cannula was introduced into the left ventricle and the femoral cannula into the aorta. Blood pressure and heart rate were recorded from the aortic cannula and left ventricular pressure from the carotid cannula. The test compunds were administered intravenously (0.1-25.6 mg/kg).
(§1) Method 2 (hypertensive rats)
(§2) Male or female rats are rendered hypertensive by applying a figure of 8 ligature around one kidney and contralateral nephrectomy. Blood pressure stabilises at a hypertensive level after 6 weeks. Systolic pressure is measured indirectly using a Decker Caudal Plethysmograph A control group of rats is run with each group treated with drug. Each group usually consists of six rats. Drugs are usually administered by the IP or oral routes. Pressures are read prior to drug administration and at two and 24 hours thereafter.

[1] = system: blood pressure and heart rate; assay: Method 1 (rat): hypotensive activity in anaesthetised rats, i.v.; conditions: for minimal effective dose: Rattus norvegicus, iv; for Significant bradycardia (dose; decrease in heart rate of more than 30%): anaesthetised rat, i.v., cumulative dose
Experimental: Rats were anaesthetised with pentobarbitone sodium (60 mg/kg) and the jugular vein, trachea and carotid artery were cannulated. […] A decrease in heart rate of more than 30% from control values was considered to be significant bradycardia.

histamine = target: T1, histamine (Cavia porcellus, UniProt P31389); assay: Antihistamine activity by the method of Alps et al.; conditions: for antihistamine activity: result in words
T1 construct: from tissue

α-adrenoceptor = assay: α-Adrenoceptor antagonism on the guinea pig aortic strip; conditions: for α-blockade pA2: Table 4; for α-adrenoceptor antagonism: result in words; for pA2 (α-adrenoceptor antagonism): guinea pig aortic strip
Text: Carried out on the guinea pig aortic strip [Furchgott and Bhadrakom (1953) J. Pharmac. exp. Ther. 108, 129-143] by the method of Alps et al [Br. J. Pharmac. 1972 44, 52-62].

tremorine = assay: Anti-tremorine activity; assay type: in vivo; conditions: result in words
[2] = Anti-inflammatory activity; assay type: in vivo; conditions: result in words
systolic pressure = assay: Method 2: anti-hypertensive activity in renal hypertensive rats; assay type: in vivo, rat; conditions: hypertensive rat
Experimental: as §1, §2
Falls in systolic blood pressure 2 hr after an oral dose of 40 mg/kg: >50
mm, +++; 50-30 mm, ++; 30-15 mm, +; <15 mm, ±. g Oral dose of 75 mg/kg
h Oral dose of 10 mg/kg. i Oral dose of 2.5 mg/kg.

[3] = 0.25 h, read-out: Hypotensive Activity
[4] = Table 4, read-out: Antihistamine pA2 (converted)
[5] = read-out: Significant hypotension (dose; fall of 30 mm mercury or more in diastolic pressure)
[6] = pA2 (antihistamine activity), Table 2

T1 sequence (P31389 whole entry): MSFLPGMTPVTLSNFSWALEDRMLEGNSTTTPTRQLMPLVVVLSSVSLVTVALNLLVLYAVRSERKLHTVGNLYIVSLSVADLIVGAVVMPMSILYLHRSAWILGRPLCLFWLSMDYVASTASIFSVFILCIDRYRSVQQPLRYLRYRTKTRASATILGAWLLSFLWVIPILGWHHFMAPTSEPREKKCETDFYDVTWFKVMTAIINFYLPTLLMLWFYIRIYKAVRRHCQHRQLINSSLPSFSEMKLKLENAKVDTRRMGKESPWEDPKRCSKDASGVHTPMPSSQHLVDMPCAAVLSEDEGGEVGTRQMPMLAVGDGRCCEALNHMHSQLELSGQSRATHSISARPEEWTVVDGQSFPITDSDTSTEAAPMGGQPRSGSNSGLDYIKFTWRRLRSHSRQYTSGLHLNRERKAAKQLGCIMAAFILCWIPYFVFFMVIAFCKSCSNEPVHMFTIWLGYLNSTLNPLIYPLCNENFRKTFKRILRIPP

| antihistamine activity (histamine) | SMILES | depressant activity (Depressant activity) | hypotensive activity (blood pressure) | minimal effective dose [1, 3] [mg/kg] | also measured |
| --- | --- | --- | --- | --- | --- |
|  | COc1ccc(CCN2CCC(N)CC2)cc1OC [Example 4, 1-[2-(3,4-Dimethoxyphenyl)ethyl]-4-aminopiperidine] | depressant activity | hypotensive |  |  |
|  | COc1ccc(CCN2CCC(NC(=O)c3ccc4c(c3)OCO4)CC2)cc1OC [Example 7, 1-[2-(3,4-Dimethoxyphenyl)ethyl]-4-piperonylamidopiperidine] | depressant activity | hypotensive | < 30 |  |
| antihistamine | O=C(NC1CCN(CCc2ccc(O)c(O)c2)CC1)c1ccccc1 [Example 9, 1-[2(3,4-Dihydroxyphenyl)ethyl]-4-benzamidopiperidine] | depressant activity |  | < 30 |  |
|  | O=C(CN1CCC(NC(=O)c2ccccc2)CC1)c1ccccc1 [Example 10, 1-Phenacyl-4-benzamidopiperidine] | depressant activity | hypotensive | 6.4 to 12.8 | α-blockade pA2 (α-adrenoceptor): 5.8 |
|  | CC(=O)Nc1ccc(O)c(CN2CCC(NC(=O)c3ccccc3)CC2)c1 [Example 18, 1-(5-Acetamido-2-hydroxybenzyl)-4-benzamidopiperidine] | depressant activity |  | < 30 |  |
|  | O=C(NC1CCN(CC(O)COc2cccc3ccccc23)CC1)c1ccccc1 (centres unmarked) [Example 21, 1-[3-(1-Naphthoxy)-2-hydroxyprop-1-yl]-4-benzamidopiperidine] | some depressant activity | hypotensive activity | 6.4 to 12.8 |  |
|  | O=C(NC1CCN(CCc2ccc([N+](=O)[O-])cc2)CC1)c1ccccc1 [Example 22, 1-[2-(p-Nitrophenyl)ethyl]-4-benzamidopiperidine] | depressant | hypotensive activity | 25.6 | anti-tremorine activity (tremorine): anti-tremorine activities |
|  | Nc1ccc(CCN2CCC(NC(=O)c3ccccc3)CC2)cc1 [Example 23, 1-[2-(p-Aminophenyl)ethyl]-4-benzamidopiperidine] | depressant activity | hypotensive activity | < 30 |  |
|  | CC(=O)Nc1ccc(CCN2CCC(NC(=O)c3ccccc3)CC2)cc1 [Example 24, 1-[2-(p-Acetamidophenyl)ethyl]-4-benzamidopiperidine] | depressant | hypotensive activity | 6.4 to 12.8 | anti-tremorine activity (tremorine): anti-tremorine activities |
|  | O=C(CN1CCC(NC(=O)c2ccccc2)CC1)c1ccc(Cl)c(Cl)c1 [Example 34] | depressant activities | hypotensive | < 30 |  |
|  | Nc1ccccc1CCN1CCC(NC(=O)c2ccccc2)CC1 [Example 35, 1-[2-(o-Aminophenyl)ethyl]-4-benzamidopiperidine] | depressant activities | hypotensive | 6.4 to 12.8 |  |
| antihistamine | O=C(NC1CCN(CCc2ccc(Cl)c(Cl)c2)CC1)c1ccccc1 [Example 37, 1-[2-(3,4-Dichlorophenyl)ethyl]-4-benzamidopiperidine] |  | good hypotensive activity | 1.6 to 3.2 | Kb (histamine; [4]): 3.98 nM; anti-tremorine activity (tremorine): anti-tremorine activities; α-blockade pA2 (α-adrenoceptor): 7.35; α-adrenoceptor antagonism (α-adrenoceptor): α-adrenoceptor antagonism |
|  | O=C(NC1CCN(CCc2c(Cl)cccc2Cl)CC1)c1ccccc1 [Example 38, 1-[2-(2,6-Dichlorophenyl)ethyl]-4-benzamidopiperidine] | depressant activities | hypotensive activity | < 30 | anti-tremorine activity (tremorine): anti-tremorine |
| anti-histamine | O=C(NC1CCN(CCCc2ccccc2)CC1)c1ccccc1 [Example 39, 1-[3-Phenylpropyl]-4-benzamidopiperidine] |  | good hypotensive activity | 6.4 to 12.8 | minimal effective dose [1, 5]: 0.8 to 6.4 mg/kg; Significant bradycardia (dose; decrease in heart rate of more than 30%) [1]: 25.6 mg/kg; Kb (histamine; [4]): 2.51 nM; Kb (histamine; [6]): 3.16 nM; anti-tremorine activity (tremorine): anti-tremorine activities; pA2 (α-adrenoceptor antagonism) (α-adrenoceptor): 7.1; α-adrenoceptor antagonism (α-adrenoceptor): α-adrenoceptor antagonism |
| antihistamine | O=C(CCCN1CCC(NC(=O)c2ccccc2)CC1)c1ccc(F)cc1 [Example 42, 4-benzamido-1-[4-(p-fluorophenyl)-4-oxobutyl]-piperidine] |  | marked hypotensive activity |  | anti-inflammatory activity [2]: anti-inflammatory activity; α-adrenoceptor antagonism (α-adrenoceptor): α-adrenoceptor antagonist |
|  | O=C(NC1CCN(Cc2ccc3c(c2)OCO3)CC1)c1ccccc1 [Example 47, 4-Benzamido-1-(3,4-methylenedioxybenzyl)piperidine] |  | hypotensive activity | 25.6 | anti-inflammatory activity [2]: anti-inflammatory activity |
| anti-histamine | O=C(CCCN1CCC(NC(=O)c2ccccc2)CC1)c1ccc(Cl)cc1 [Example 51, 4-Benzamido-1-[4-(p-chlorophenyl)-4-oxobutyl]piperidine] |  | hypotensive activity | 6.4 to 12.8 | Kb (histamine; [4]): 20 nM; anti-inflammatory activity [2]: anti-inflammatory activity; α-blockade pA2 (α-adrenoceptor): 8.4; α-adrenoceptor antagonism (α-adrenoceptor): highly potent α-adrenoceptor antagonist activity |
| antihistamine | O=C(NC1CCN(CCc2ccccn2)CC1)c1ccccc1 [Example 94, 1-[2-(2-Pyridyl)ethyl]-4-benzamidopiperidine] | depressant activities | marked hypotensive activity |  |  |
|  | O=C(NC1CCN(CCc2c[nH]c3c2ccc2ccccc23)CC1)c1ccccc1 [Example 101, 1-[2-(3-Benz[g]indolyl)ethyl]-4-benzamidopiperidine] | depressant activity | marked hypotensive activity | 6.4 to 12.8 |  |
|  | O=C(NC1CCN(CC2COc3ccccc3O2)CC1)c1ccccc1 (centres unmarked) [Example 102, 2-(4'-Benzamidopiperid-1-yl)methylbenzo-1,4-dioxan] |  | marked hypotensive activity |  | anti-inflammatory activity [2]: anti-inflammatory activity |

| SMILES | antihistamine activity (histamine) | depressant activity (Depressant activity) | hypotensive activity (blood pressure) | minimal effective dose [1, 3] [mg/kg] | also measured |
| --- | --- | --- | --- | --- | --- |
| O=C(NC1CCN(CCCC(O)c2ccc(F)cc2)CC1)c1ccccc1 (centres unmarked) [Example 54, 1-[4-(p-Fluorophenyl)-4-hydroxybutyl]-4-benzamidopiperidine] | potent antihistamine activity |  | hypotensive activity | 6.4 to 12.8 | minimal effective dose [1, 5]: 6.4 to 12.8 mg/kg; Significant bradycardia (dose; decrease in heart rate of more than 30%) [1]: 6.4 to 12.8 mg/kg; Kb (histamine; [6]): 316 nM; pA2 (α-adrenoceptor antagonism) (α-adrenoceptor): 6.6; Pressure reduced to (systolic pressure; 10 mg/kg, from 209 mmHg): 164 mmHg; toxicity (systolic pressure; 40 m.p.k.): Toxic |
